Experimental data as given in US20250099485A1, “COMPOSITIONS FOR PROMOTING HAIR GROWTH” (ESTETRA SRL, priority 2021, published 2025).

Tests used:
[1] = tested on: Normal Human Epidermal Keratinocytes (NHEKs); experiment: Colonization of acellular area (IBIDI gap closure), keratinocytes; assay type: cell-based; conditions: 6 h and 24 h contact, cell gives time of significant effect; for NHEK Proliferation & Migration (colonization of acellular area vs ethanol control): absence of MMC; for NHEK Migration (+MMC) (colonization of acellular area vs ethanol control): presence of mitomycin C
Experimental: The study consists in an in vitro assay aiming to evaluate the properties of E4 and E2 at 4 concentrations each on keratinocytes and fibroblasts. In this assay, the measurement of the colonization of a standard acellular surface generated from a confluent monolayer of cells using a dedicated culture device (IBIDI chamber) is performed. The assay is performed in absence and in presence of a proliferation inhibitor to focus on cell proliferation and migration or on migration only, respectively.
The study was performed using cultures of Normal Human foreskin-derived Epidermal Keratinocytes (NHEKs, Lonza). The cells were grown in serum free Epilife medium (ThermoFisher Scientific) supplemented with Human Keratinocyte Growth Supplement (HKGS, ThermoFisher Scientific) and antibiotics. The cells were maintained in a humidified incubator at 37° C. with a 5% CO2 atmosphere.
Cells were plated in 2-well silicone inserts with a defined cell free gap (IBIDI chambers; IBIDI GmbH, 80209) that was previously inserted on 12-well culture plates. This culture device allows to create a standardized 500 μm±100 μm cell free gap for monitoring cell colonization. 24 h after seeding, when the culture reached high confluency, cells in the insert were treated, or not, with mitomycin C (MMC) at 10 μg/ml during 2 h. After these 2 hours, the insert was removed, and cells were treated with E2 or E4 in presence or not of MMC for additional 2 h. Then, if appropriate, the culture medium was removed and cells were treated with E2 or E4 for 22 h, in absence of MMC.
For the assay, keratinocytes were plated in Epilife medium without HKGS and all the treatments were performed in this medium. Fibroblasts were plated in DMEM medium containing only 2.5% of FBS and the treatments were performed in absence of FBS.
E2 and E4 were applied at 4 concentrations each (10^−7M, 10^−8M, 10^−9M, 10^−10M). In parallel, cells were treated with a positive control (HKGS 1% for human keratinocytes and PDGF-BB at 10 ng/ml for human fibroblasts).
To monitor cell colonization and to evaluate the gap closure rate, pictures of the gap were taken after different times: at time 0 h, corresponding to the beginning of the treatment with E2 or E4 and to the removal of the culture insert, at time 6 h and at time 24 h (corresponding to the end of the treatments with E2 or E4). Pictures were taken with a microscope Zeiss (Axiover 25-10× objective) and with a camera Invenio2EIII (DeltaPix—Lux-Optic). The colonized areas were quantified from the pictures by the use of the WimAsis platform—WimScratch software. For each insert, 3 pictures were taken at each time. As each condition was performed in triplicates, it means a total of 9 pictures per condition and per time point of acquisition

[2] = tested on: primary human epidermal keratinocytes; experiment: Keratinocyte scratch assay; assay type: cell-based; conditions: 10^−10M and 10^−7M, culture condition with 15% HKGS, compared with E2
Experimental: Human skin was transferred to the laboratory in holding media (DMEM containing 4% penicillin-streptomycin and Amphotericin B solution) within 30 minutes of collection. Once defatted, the skin was rinsed in HBSS with 4% PSA followed by DPBS without antibiotics, then cut into thin strips and floated on 0.2% Dispase II in DPBS overnight at 4° C., followed by manual separation of the epidermis from the dermis. Primary human epidermal keratinocytes and primary human dermal fibroblasts were then isolated.
Confluent wells of both primary keratinocytes and fibroblasts were subjected to a highly validated scratch wounding procedure (using a 1 mL sterile filter tip). Post-scratching, cells were rinsed with DPBS and cell-specific media containing treatments added to each well. Cells were imaged on a ptychographic live cell imaging platform (Livecyte 2TM, Phasefocus) for 24-48 hours. Automated tracking of individual unlabeled cells will be combined with 3D cell measurements to quantify a range of wound-relevant cell parameters including scratch closure rate.
Dose range finding experiments were conducted with E4 (10^−10M to 10^−6M) and E2 with and without Mitomycin C (MMC, to inhibit proliferation) using vehicle as negative controls.

[3] = tested on: mouse BMDM (bone marrow derived monocytes); experiment: Immune cell polarization (qPCR NOS2/ARG1), mouse BMDM; assay type: cell-based; conditions: activated mouse bone marrow derived monocytes, qPCR marker
Experimental: Immune cell polarization was evaluated in vitro using markers for M1/TH-1 (NOS2) and M2/TH-2 (ARG1) phenotype with human monocytes and mouse monocytes (BMDM bone marrow derived monocytes).
An experiment was conducted to evaluate the anti-inflammatory effects of E4 or vehicle (negative control). qPCR methodology was used to assess the effects of E2 and E4 on immune cell polarization using well validated marker of pro-inflammatory (NOS2 for MI/TH-1 phenotype) and anti-inflammatory (ARG1 for ME/TH-2 phenotype) activity.

[4] = tested on: hair matrix keratinocytes; experiment: Hair follicle organ culture: hair matrix keratinocytes proliferation and apoptosis (Ki-67/TUNEL); assay type: cell-based, human; conditions: vs vehicle
Experimental: (§1) 12-44 full-length frontotemporal hair follicles (HF) were obtained from four human female donors >50 years old. Donors were caucasian female subjects […], respectively (Donor 1: 12 temporal anagen HFs; Donor 2: 29; Donor 3: 44; Donor 4: 32). After microdissection from skin as described (Edelkamp et al., Methods Mol Biol, 2020, 2154:105-119; and Langan et al., Exp Dermatol, 2015, December; 24(12):903-1), HFs were placed in adequate culture medium and allowed a 24 h rest period to allow them to recover from the trauma of microdissection. Test substance (either vehicle (0.3% EtOH) or E4 at concentrations of 30 μM, 3 μM or 300 nM) was added to the medium at the end of the 24 h. Total culturing time was 5-7 days depending on the studied parameters and the experimental question. The experimental design for the hair follicle organ culture experiment is depicted in FIG. 12. Longer term culture experiments may be used to analyze the capacity to delay the onset of catagen.
Germinative hair matrix keratinocytes proliferate mostly during anagen. […] Apoptosis of hair matrix keratinocytes is used as an additional indicator of anagen/catagen transition.
Proliferation was assessed by quantification of the percentage of hair matrix keratinocytes in a clearly specified area (germinative hair matrix keratinocytes, below the Auber's line) that were positive for the proliferation marker Ki67 (or another proliferation marker such as BrdU or EdU), whereas apoptosis was assessed using TUNEL (TdT-mediated dUTP-biotin nick-end labelling) immunofluorescence (or another apoptosis marker such as activated caspase-3) in the same keratinocyte population (below the Auber's line) and in the precortical hair matrix keratincoytes (above the Auber's line) (Langan et al., Exp Dermatol 2015) (FIG. 13).

[5] = tested on: alkaline phosphatase in dermal papilla (DP); experiment: Hair follicle organ culture: alkaline phosphatase activity, DP inductivity; assay type: cell-based, human; conditions: all tested concentrations, vs vehicle
Experimental: as §1
Alkaline phosphatase is an indicator of DP inductivity (Yang, J Dermatol Sci, 2010, January; 57(1):2-11). Alkaline phosphatase in situ activity was measured in the DP.

SMILES: C[C@]12CC[C@@H]3c4ccc(O)cc4CC[C@H]3[C@@H]1[C@@H](O)[C@@H](O)[C@@H]2O [E4, 1,3,5 (10)-estratrien-3,15alpha,16alpha,17beta-tetrol]
- NHEK Proliferation & Migration (colonization of acellular area vs ethanol control) ([1]; 10^−7M): significantly increased the colonization of the acellular area
- NHEK Migration (+MMC) (colonization of acellular area vs ethanol control) ([1]; 10^−7M): significantly increased the colonization of the acellular area
- NHEK Proliferation & Migration (colonization of acellular area vs ethanol control) ([1]; 10^−10M): significantly increased the colonization of the acellular area
- NHEK Migration (+MMC) (colonization of acellular area vs ethanol control) ([1]; 10^−10M): significantly increased the colonization of the acellular area
- impact on keratinocyte migration, scratch assay [2]: seems higher than the impact of E2
- immune cell polarization, mouse BMDM [3]: switch from subtype M1 (pro-inflammatory) to subtype M2 (healing)
- hair matrix keratinocytes apoptosis (TUNEL) ([4]; 300 nM, 3 μM, 30 μM): without affecting
- increased hair matrix keratinocytes proliferation (Ki-67) ([4]; 300 nM): tendentially
- increased hair matrix keratinocytes proliferation (Ki-67) ([4]; 3 μM): significantly
- increased hair matrix keratinocytes proliferation (Ki-67) ([4]; 30 μM): tendentially
- alkaline phosphatase activity in DP cells [5]: tendentially increased
